Data: article PMC2033546, “Effects of somatostatin analogue RC-160 and bombesin/gastrin-releasing peptide antagonists on the growth of human small-cell and non-small-cell lung carcinomas in nude mice” (British Journal of Cancer, 1994)

Legend:
[1] = Body weight of tumour-bearing nude mice; settings: Table I, Experiment I (SCLC-H69), end of experiment; control 26.3 ? 2.3; means ? s.d.
Description: Br. J. Cancer (1994). 70, 886 892 ? Macmillan Press Ltd.. […] Bombesin GRP antagonists. […] Lung carcinoma is the leading cause of cancer-related deaths in the western world. It is estimated that in 1992 there were approximately 168,000 new cases of lung cancer in the US and that about 146,000 deaths occurred from this disease (Boring et al., 1992). […] CeLs were passaged weekly and routinely monitored for myco- plasma contamination using a detection kit (Boehringer- Mannheim, Mannheim, Germany). […] The number of mitotic and apoptotic cells per 1,000 cells was determined, and the percentage area of necrosis in tumour sections was examined using the point-counting method (Szepeshazi et al., 1991, 1992), in which the crossing points of an ocular net that coincide with necrosis in various sections are counted. Radiommunoassays Serum levels of growth hormone were determined by double- antibody radioimmunoassay (RIA) using materials supplied by the National Hormone and Pituitary Program of the National Institute of Diabetes and Digestive and Kidney Diseases (NIDDK).

[2] = tested on: EGF receptors in membranes of SCLC H69 tumours; assay: EGF receptor binding on H69 tumour membranes after in vivo treatment; parameters: species or system human; settings: Table IV, Experiment I (SCLC-H69); tumour membranes after in vivo treatment; control 278; ten-point displacement in triplicate tubes, done once
Description: (§1) Br. J. Cancer (1994). 70, 886 892 ? Macmillan Press Ltd.. […] Bombesin GRP antagonists. […] Lung carcinoma is the leading cause of cancer-related deaths in the western world. It is estimated that in 1992 there were approximately 168,000 new cases of lung cancer in the US and that about 146,000 deaths occurred from this disease (Boring et al., 1992). […] The growth factors such as bombesin/gastrin-releasing pep- tide (GRP), epidermal growth factor, (EGF), transforming growth factor a (TGF-x) and insulin-like growth factor I(IGF-I) appear to play a role in the proliferation and pro- gression of lung cancer (Cuttitta et al., 1985; Veale et al., 1987; Minuto et al., 1988; Siegfried & Owens, 1988; Macaulay et al., 1990; Tateishi et al., 1991; Damstrup et al., 1992; Sethi & Rozengurt, 1992; Rabiasz et al., 1992; Moody & Cuttitta, 1993). […] Tpi is 2,3,4,9-tetrahydro- Correspondence: A.V. Schally (151). VA Medical Center, 1601 Per- dido Street. New Orleans, LA 70146. USA. Received 1 March 1994; and in revised form 5 July 1994. Br. J. Cancer (1994), 70, 886-892 C Macmillan Press Ltd., 1994 PEPTIDE ANALOGUES IN LUNG CANCER 8U7 lH-pyrido [3,4bjindol-3-carboxylic acid, a conformationally constrained secondary amine derivate of tryptophan and Tac is thiazolidine-4-carboxylic acid. […] Animals Male athymic NCr nulmu nude mice, approximately 6 weeks old on arrival, were obtained from the NCI (Bethesda, MD, USA) and maintained under pathogen-limited conditions. Cell lines The human SCLC cell line NCI-H69, was obtained from the American Type Cell Culture (ATCC), Rockville, MD, USA and the non-SCLC cell line NCI-H157, from Dr H. Oie, NCI-Navy Medical Oncology Branch, Bethesda, MD, USA. These cell lines were cultured in RPMI-1640 medium supple- mented with 4 mM L-glutamine, 50 units ml-I penicilln G sodium, SOigml-' streptomycin sulphate, 0.125pgml-' amphotericin B and 10% fetal bovine serum at 3TC in a humidified 95% air/5% carbon dioxide atmosphere. CeLs were passaged weekly and routinely monitored for myco- plasma contamination using a detection kit (Boehringer- Mannheim, Mannheim, Germany). All culture media com- ponents were purchased from Gibco (Grand Island, NY, USA). Receptor assays Preparation of membranes for receptor studies was described previously (Halmos et al., 1993). Iodinated EGF and IGF-I were purchased from Amersham (Arlington Heights, IL, USA). Radioiodination of other peptides and receptor bind- ing of EGF, IGF-I, somatostatin and bombesin/GRP were performed as previously described (Srkalovic et al., 1989; Szepeshazi et al., 1992). Complete displacement assays on tumour membranes were done only once because of the shortage of tumour material. The LIGAND PC computerised curve-fitting programme of Munson and Rodbard (1980) was used to determine the types of receptor binding, dissociation constant (Kd) values, and the maximal binding capacity (BDj) of receptors. […] The number of mitotic and apoptotic cells per 1,000 cells was determined, and the percentage area of necrosis in tumour sections was examined using the point-counting method (Szepeshazi et al., 1991, 1992), in which the crossing points of an ocular net that coincide with necrosis in various sections are counted. Radiommunoassays Serum levels of growth hormone were determined by double- antibody radioimmunoassay (RIA) using materials supplied by the National Hormone and Pituitary Program of the National Institute of Diabetes and Digestive and Kidney Diseases (NIDDK).

[3] = tested on: IGF-I receptors in membranes of SCLC H69 tumours; assay: IGF-I receptor binding on H69 tumour membranes after in vivo treatment; parameters: species or system human; settings: Table IV, Experiment I (SCLC-H69), control 294, done once
Description: as §1, with “USA).” for “USA). Receptor assays Preparation of membranes for receptor studies was described previously (Halmos et al., 1993). Iodinated EGF and IGF-I were purchased from Amersham (Arlington Heights, IL, USA). Radioiodination of other peptides and receptor bind- ing of EGF, IGF-I, somatostatin and bombesin/GRP were performed as previously described (Srkalovic et al., 1989; Szepeshazi et al., 1992). Complete displacement assays on tumour membranes were done only once because of the shortage of tumour material. The LIGAND PC computerised curve-fitting programme of Munson and Rodbard (1980) was used to determine the types of receptor binding, dissociation constant (Kd) values, and the maximal binding capacity (BDj) of receptors.”

[4] = tested on: Bombesin/GRP receptors in membranes of SCLC H69 tumours; assay: Bombesin/GRP receptor binding on H69 tumour membranes after in vivo treatment; parameters: species or system human; settings: for Concentration of receptors for bombesin/GRP on H69 tumours (in words): after in vivo treatment
Description: as §1

[5] = tested on: human SCLC cell line NCI-H69; assay: Growth of H69 SCLC xenografts in nude mice; format: in vivo, human (xenograft in male athymic nude mice); settings: for Tumour weight: antagonists 20 µg/day per animal, control 0.27 ? 0.19; for Tumour doubling time: antagonists 20 µg/day per animal s.c., control 7.5; for Growth of H69 SCLC tumours (in words): s.c. peritumorally, bombesin/GRP antagonists 20 µg per animal per day
Description: (§2) Br. J. Cancer (1994). 70, 886 892 ? Macmillan Press Ltd.. […] Bombesin GRP antagonists. […] Lung carcinoma is the leading cause of cancer-related deaths in the western world. It is estimated that in 1992 there were approximately 168,000 new cases of lung cancer in the US and that about 146,000 deaths occurred from this disease (Boring et al., 1992). […] The growth factors such as bombesin/gastrin-releasing pep- tide (GRP), epidermal growth factor, (EGF), transforming growth factor a (TGF-x) and insulin-like growth factor I(IGF-I) appear to play a role in the proliferation and pro- gression of lung cancer (Cuttitta et al., 1985; Veale et al., 1987; Minuto et al., 1988; Siegfried & Owens, 1988; Macaulay et al., 1990; Tateishi et al., 1991; Damstrup et al., 1992; Sethi & Rozengurt, 1992; Rabiasz et al., 1992; Moody & Cuttitta, 1993). […] Tpi is 2,3,4,9-tetrahydro- Correspondence: A.V. Schally (151). VA Medical Center, 1601 Per- dido Street. New Orleans, LA 70146. USA. Received 1 March 1994; and in revised form 5 July 1994. Br. J. Cancer (1994), 70, 886-892 C Macmillan Press Ltd., 1994 PEPTIDE ANALOGUES IN LUNG CANCER 8U7 lH-pyrido [3,4bjindol-3-carboxylic acid, a conformationally constrained secondary amine derivate of tryptophan and Tac is thiazolidine-4-carboxylic acid. […] Animals Male athymic NCr nulmu nude mice, approximately 6 weeks old on arrival, were obtained from the NCI (Bethesda, MD, USA) and maintained under pathogen-limited conditions. Cell lines The human SCLC cell line NCI-H69, was obtained from the American Type Cell Culture (ATCC), Rockville, MD, USA and the non-SCLC cell line NCI-H157, from Dr H. Oie, NCI-Navy Medical Oncology Branch, Bethesda, MD, USA. These cell lines were cultured in RPMI-1640 medium supple- mented with 4 mM L-glutamine, 50 units ml-I penicilln G sodium, SOigml-' streptomycin sulphate, 0.125pgml-' amphotericin B and 10% fetal bovine serum at 3TC in a humidified 95% air/5% carbon dioxide atmosphere. CeLs were passaged weekly and routinely monitored for myco- plasma contamination using a detection kit (Boehringer- Mannheim, Mannheim, Germany). All culture media com- ponents were purchased from Gibco (Grand Island, NY, USA). Receptor assays Preparation of membranes for receptor studies was described previously (Halmos et al., 1993). Iodinated EGF and IGF-I were purchased from Amersham (Arlington Heights, IL, USA). Radioiodination of other peptides and receptor bind- ing of EGF, IGF-I, somatostatin and bombesin/GRP were performed as previously described (Srkalovic et al., 1989; Szepeshazi et al., 1992). Complete displacement assays on tumour membranes were done only once because of the shortage of tumour material. The LIGAND PC computerised curve-fitting programme of Munson and Rodbard (1980) was used to determine the types of receptor binding, dissociation constant (Kd) values, and the maximal binding capacity (BDj) of receptors. In order to determine the specificity of the binding sites for radiolabelled EGF, IGF-I, somatostatin and bombesin to lung cancer membranes, various structuraly related and unrelated peptides were tested for their ability to inhibit the binding of the tracers. Histological procedure The histological procedures were the same as described previously (Szepeshazi et al., 1991, 1992). The number of mitotic and apoptotic cells per 1,000 cells was determined, and the percentage area of necrosis in tumour sections was examined using the point-counting method (Szepeshazi et al., 1991, 1992), in which the crossing points of an ocular net that coincide with necrosis in various sections are counted. Radiommunoassays Serum levels of growth hormone were determined by double- antibody radioimmunoassay (RIA) using materials supplied by the National Hormone and Pituitary Program of the National Institute of Diabetes and Digestive and Kidney Diseases (NIDDK).

[6] = Serum gastrin radioimmunoassay in nude mice; format: in vivo; settings: Table III, Experiment I (SCLC H-69), after treatment; double-antibody RIA; control 130.0 ? 10.8; means ? s.e.; **P < 0.01 vs control
[7] = tested on: Somatostatin receptors in membranes of SCLC H69 tumours; assay: Somatostatin receptor binding on H69 tumour membranes after in vivo treatment; parameters: species or system human; settings: Table IV, Experiment I (SCLC-H69); tumour membranes after in vivo treatment; control 450; done once
Description: as §1

human SCLC cell line H69 = assay: [3H]Thymidine incorporation assay in H69 cells; format: cell-based; settings: 3 days; for [3H]thymidine incorporation into DNA of H69 cells (in words): RC-160 0.001 to 10.0 µg/ml, 5 days, RC-3005 or RC-3009 5.0 and 25.0 µg/ml; for [3H]Thymidine incorporation: Table V, mean s.e.
Description: as §2

SCLC H69 tumours = assay: Histology (mitosis, apoptosis, necrosis) of SCLC H69 tumours; format: in vivo, human (xenograft in nude mice)
Description: as §2

[8] = Table I, Experiment I (SCLC-H69), 5 weeks s.c. peritumoral, RC-160 100 µg/day, means ? s.d., *P<0.05 vs control
[9] = Table I, Experiment I (SCLC-H69), 5 weeks, RC-160 100 µg/day
[10] = H69 SCLC xenografts, as compared with control group, RC-160 100 µg, RC-3950-II 20 µg per animal per day s.c. peritumorally, 5 weeks

| Substance | Body weight [1] | EGF maximal binding capacity (Bmax) [2] | IGF-I maximal binding capacity (Bmax) [3] | Bombesin/GRP maximal binding capacity (Bmax) ([4]; Table IV, Experiment I (SCLC-H69), tumour membranes after in vivo treatment, control 420, done once) | Concentration of receptors for bombesin/GRP on H69 tumours (in words) [4] | Tumour volume, final ([5]; Table I, Experiment I (SCLC-H69), 5 weeks s.c. peritumoral, RC-160 100 µg/day, RC-3440, RC-3095, RC-3950-II 20 µg/day per animal, control 249.7 ? 182.3, means ? s.d., ten animals per group, *P<0.05 vs control) | Tumour weight [5, 8] | Tumour doubling time [5, 9] | Growth of H69 SCLC tumours (in words) ([5]; RC-160 100 µg, 5 weeks) | Serum gastrin [6] | Somatostatin maximal binding capacity (Bmax) [7] | [3H]thymidine incorporation into DNA of H69 cells (in words) (human SCLC cell line H69) | [3H]Thymidine incorporation (human SCLC cell line H69; 1.0 µg/ml) | Reduction in tumour volumes [5, 10] | Reduction in tumour weights [5, 10] | Extent of necrosis (in words) (SCLC H69 tumours; SCLC H69 tumours, point-counting method, differences from control not significant statistically) | Apoptotic index (SCLC H69 tumours; Table II, Experiment I (SCLC H69), apoptotic cells per 1,000 cells, control 35.4 ? 2.6, means ? s.e.) | Mitotic index (SCLC H69 tumours; Table II, Experiment I (SCLC H69), mitotic cells per 1,000 cells, control 37.9 ? 2.9, means ? s.e., *P < 0.05 vs control) | [3H]Thymidine incorporation (human SCLC cell line H69; 5.0 µg/ml, *P<0.05 vs control) |
| --- | --- | --- | --- | --- | --- | --- | --- | --- | --- | --- | --- | --- | --- | --- | --- | --- | --- | --- | --- |
| [Tpi6, Leu'3*(CH2N)Tpi'4 bombesin (6-16) [RC-3440] | 26.2 ± 1.3 g | 134 fmol mg' protein | 255 fmol mg' protein | 255 fmol mg-'protein | markedly dereased | 74.1 mm³ | 0.076 ± 0.04* g | 12.1 days | inhibited the growth of H69 SCLC tumours | 92.7 8.2 pg ml' | 501 fmol mg-'protein |  |  |  |  |  |  |  |  |
| His(Bz)2D, D-Trp23, D-Phe2, Leu'- GRP(14-27) [RC-3005] |  |  |  |  |  |  |  |  |  |  |  | significantly suppressed | 100.0 2.0 per cent of control |  |  |  |  |  |  |
| [D-Phe6, Leu'3*(CH,N)Tac'1 bombesin (6-14) [RC-3950-II] |  | 93 fmol mg' protein | 226 fmol mg' protein |  | reduced to non-detectable levels |  | 0.03 0.03* g | 16.8 days | greatest inhibitory effect |  | 390 fmol mg-'protein |  |  | more than 80% | more than 80% | less exten- sive | 41.5 | 49.8 |  |
| D-Trp23, D-Phe5, Leu27- GRP(14-27) [RC-3009] |  |  |  |  |  |  |  |  |  |  |  | significantly suppressed | 98.4 0.8 per cent of control |  |  |  |  |  | 92.7 2.0* per cent of control |
